Measured values published in patent US12472168B2, “Ring-fused thiazolino 2-pyridones, methods for preparation thereof and their use in the treatment and/or prevention of a disease involving gram-positive bacteria” (Quretech Bio AB, priority 2017, dated 2025).
In brackets after ≈: the same amount, converted by molar mass. Structures can show the parent of a compound that is named as a salt. Where two headings read alike, the source gives them in different places.

Assays:
[1] = system: MRSA; assay: Minimum Inhibitory Concentration (MIC) and Minimum Bactericidal Concentration (MBC) assays; format: cell-based, Methicillin-resistant Staphylococcus aureus; details: compound alone, no antibiotic; for MIC: overnight (18 hrs)
Experimental: (§1) MIC was defined by the lowest concentration of the test compound that inhibits visible growth of pathogen of interest. The optical density of the pathogen of interest culture was measured by OD600.
(§2) MBC was determined colony forming units (CFUs) enumeration by serially diluting and plating bacterial cultures on BHI plates.
(§3) Thus, no antibiotic was used in Table 2.

[2] = system: E. faecalis; assay: MIC and MBC assays; format: cell-based; details: Enterococcus faecalis, compound alone, no antibiotic; for MIC: overnight (18 hrs)
Experimental: as §1, §2, §3

[3] = system: Streptococcus; assay: MIC and MBC assays; format: cell-based; details: compound alone, no antibiotic
Experimental: as §1, §2, §3

[4] = system: Staph. aureus; assay: MIC and MBC assays; format: cell-based; details: Staphylococcus aureus, compound alone, no antibiotic; for MIC: overnight (18 hrs)
Experimental: (§4) […]. MIC was defined by the lowest concentration of the test compound that inhibits visible growth of pathogen of interest. The optical density of the pathogen of interest culture was measured by OD600.
(§5) […]. MBC was determined colony forming units (CFUs) enumeration by serially diluting and plating bacterial cultures on BHI plates.
(§6) . Thus, no antibiotic was used in Table 2.

[5] = system: Strep. pyogenes; assay: MIC and MBC assays; format: cell-based; details: Streptococcus pyogenes, compound alone, no antibiotic
Experimental: as §4, §5, §6

[6] = Staphylococcus aureus, 18 h, read-out: MIC

MIC [2]	Structure (SMILES)	MIC [1, 6]	MBC ([1]; Staphylococcus aureus)	other results
67 µM (≈ 37.9 µg/mL)	CCCCCCOc1ccc(-c2sc3c(C4CC4)c(Cc4cccc5ccccc45)cc(=O)n3c2C(=O)O)cc1C [Example 1, 5-Cyclopropyl-8-[4-(hexyloxy)-3-methyl-phenyl]-4-[(1-naphthyl)methyl]-2-oxo-7-thia-1-azabicyclo[4.3.0]nona-3,5,8-triene-9-carboxylic acid]	20 µM (≈ 11.3 µg/mL)	25 µM (≈ 14.1 µg/mL)	MBC [2]: 25 µM (≈ 14.1 µg/mL); MBC [3]: 9 µM (≈ 5.09 µg/mL)
250 µM (≈ 131 µg/mL)	CCCOc1ccc(-c2sc3c(C4CC4)c(Cc4cccc5ccccc45)cc(=O)n3c2C(=O)O)cc1C [Example 2, 5-Cyclopropyl-4-[(1-naphthyl)methyl]-2-oxo-8-(4-propoxy-3-methyl-phenyl)-7-thia-1-azabicyclo[4.3.0]nona-3,5,8-triene-9-carboxylic acid]	27 µM (≈ 14.1 µg/mL)	≥ 50 µM	MBC [3]: 5 µM (≈ 2.62 µg/mL)
183 µM (≈ 106 µg/mL)	CCCCCCCOc1ccc(-c2sc3c(C4CC4)c(Cc4cccc5ccccc45)cc(=O)n3c2C(=O)O)cc1C [Example 3, 5-Cyclopropyl-8-[4-(heptyloxy)-3-methyl-phenyl] 4-[(1-naphthyl)methyl]-2-oxo-7-thia-1-azabicyclo[4.3.0]nona-3,5,8-triene-9-carboxylic acid]	167 µM (≈ 96.8 µg/mL)		MBC [2]: 100 µM (≈ 58 µg/mL); MBC [3]: 50 µM (≈ 29 µg/mL)
250 µM (≈ 124 µg/mL)	COc1ccc(-c2sc3c(C4CC4)c(Cc4cccc5ccccc45)cc(=O)n3c2C(=O)O)cc1C [Example 4, 5-Cyclopropyl-8-(4-methoxy-3-methyl-phenyl)-4-[(1-naphthyl)methyl]-2-oxo-7-thia-1-azabicyclo[4.3.0]nona-3,5,8-triene-9-carboxylic acid]	200 µM (≈ 99.1 µg/mL)		MBC [3]: 9 µM (≈ 4.46 µg/mL)
250 µM (≈ 127 µg/mL)	CCOc1ccc(-c2sc3c(C4CC4)c(Cc4cccc5ccccc45)cc(=O)n3c2C(=O)O)cc1C [Example 5, 5-Cyclopropyl-8-(4-ethoxy-3-methyl-phenyl)-4-[(1-naphthyl)methyl]-2-oxo-7-thia-1-azabicyclo[4.3.0]nona-3,5,8-triene-9-carboxylic acid]	150 µM (≈ 76.4 µg/mL)		MBC [3]: 10 µM (≈ 5.1 µg/mL)
200 µM (≈ 110 µg/mL)	CCCCCOc1ccc(-c2sc3c(C4CC4)c(Cc4cccc5ccccc45)cc(=O)n3c2C(=O)O)cc1C [Example 6, 5-Cyclopropyl-4-[(1-naphthyl)methyl]-2-oxo-8-[4-(pentyloxy)-3-methyl-phenyl]-7-thia-1-azabicyclo[4.3.0]nona-3,5,8-triene-9-carboxylic acid]	69 µM (≈ 38.1 µg/mL)	37 µM (≈ 20.4 µg/mL)	MBC [2]: 100 µM (≈ 55.2 µg/mL); MBC [3]: 23 µM (≈ 12.7 µg/mL)
	CCCCCCn1cc(-c2sc3c(OC)c(Cc4cccc5ccccc45)cc(=O)n3c2C(=O)O)nn1 [Example 15, 8-(1-Hexyl-1H-1,2,3-triazol-4-yl)-5-methoxy-4-[(1-naphthyl)methyl]-2-oxo-7-thia-1-azabicyclo[4.3.0]nona-3,5,8-triene-9-carboxylic acid]	100 µM (≈ 51.7 µg/mL)		
	CCCCCCn1cc(-c2sc3c(OC)c(Cc4cccc5ccccc45)cc(=O)n3c2C(=O)O)nn1 [Example 16, 8-(1-Hexyl-1H-1,2,3-triazol-4-yl)-5-methoxy-4-[(1-naphthyl)methyl]-2-oxo-7-thia-1-azabicyclo[4.3.0]nona-3,5,8-triene-9-carboxylic acid imidazole salt]			MIC [1]: 200/nd uM
	COCCOc1ccc(-c2sc3c(OC)c(Cc4cccc5ccccc45)cc(=O)n3c2C(=O)O)cc1C [Example 17, 5-Methoxy-8-[4-(2-methoxyethoxy)-3-methyl-phenyl]-4-[(1-naphthyl)methyl]-2-oxo-7-thia-1-azabicyclo[4.3.0]nona-3,5,8-triene-9-carboxylic acid]	> 25 µM		
	COCCOc1ccc(-c2sc3c(C4CC4)c(Cc4cccc5ccccc45)cc(=O)n3c2C(=O)O)cc1C [Example 18, 5-Cyclopropyl-8-[4-(2-methoxyethoxy)-3-methyl-phenyl]-4-[(1-naphthyl)methyl]-2-oxo-7-thia-1-azabicyclo[4.3.0]nona-3,5,8-triene-9-carboxylic acid]	> 25 µM		
> 100 µM	C=CCOc1ccc(-c2sc3c(OC)c(Cc4cccc5ccccc45)cc(=O)n3c2C(=O)O)cc1C [Example 21, 8-[4-(Allyloxy)-3-methyl-phenyl]-5-methoxy-4-[(1-naphthyl)methyl]-2-oxo-7-thia-1-azabicyclo[4.3.0]nona-3,5,8-triene-9-carboxylic acid]	19 µM (≈ 9.72 µg/mL)		
> 100 µM	C#CCCCCOc1ccc(-c2sc3c(OC)c(Cc4cccc5ccccc45)cc(=O)n3c2C(=O)O)cc1C [Example 22, 8-[4-(5-Hexynyloxy)-3-methyl-phenyl]-5-methoxy-4-[(1-naphthyl)methyl]-2-oxo-7-thia-1-azabicyclo[4.3.0]nona-3,5,8-triene-9-carboxylic acid]	6 µM (≈ 3.31 µg/mL)		
> 100 µM	COc1c(Cc2cccc3ccccc23)cc(=O)n2c(C(=O)O)c(-c3ccc(OCCC=C(C)C)c(C)c3)sc12 [Example 24, 5-Methoxy-8-[4-(4-methyl-3-pentenyloxy)-3-methyl-phenyl]-4-[(1-naphthyl)methyl]-2-oxo-7-thia-1-azabicyclo[4.3.0]nona-3,5,8-triene-9-carboxylic acid]	45 µM (≈ 24.9 µg/mL)		
> 100 µM	C=CCCCCOc1ccc(-c2sc3c(OC)c(Cc4cccc5ccccc45)cc(=O)n3c2C(=O)O)cc1C [Example 25, 8-[4-(5-Hexenyloxy)-3-methyl-phenyl]-5-methoxy-4-[(1-naphthyl)methyl]-2-oxo-7-thia-1-azabicyclo[4.3.0]nona-3,5,8-triene-9-carboxylic acid]	45 µM (≈ 24.9 µg/mL)		
> 100 µM	COc1c(Cc2cccc3ccccc23)cc(=O)n2c(C(=O)O)c(-c3ccc(OCC4CC4)c(C)c3)sc12 [Example 26, 8-[4-(Cyclopropylmethoxy)-3-methyl-phenyl]-5-methoxy-4-[(1-naphthyl)methyl]-2-oxo-7-thia-1-azabicyclo[4.3.0]nona-3,5,8-triene-9-carboxylic acid]	12 µM (≈ 6.31 µg/mL)		
	CCCCCCOc1ccc(-c2sc3c(N)c(Cc4cccc5ccccc45)cc(=O)n3c2C(=O)O)cc1C [Example 27, 5-Amino-8-[4-(hexyloxy)-3-methyl-phenyl]-4-[(1-naphthyl)methyl]-2-oxo-7-thia-1-azabicyclo[4.3.0]nona-3,5,8-triene-9-carboxylic acid]	25 µM (≈ 13.5 µg/mL)		
	O=C(O)c1c(-c2ccccc2)sc2c(C3CC3)c(Cc3cccc4ccccc34)cc(=O)n12 [Example 29, 5-Cyclopropyl-4-[(1-naphthyl)methyl]-2-oxo-8-phenyl-7-thia-1-azabicyclo[4.3.0]nona-3,5,8-triene-9-carboxylic acid]	250 µM (≈ 113 µg/mL)	200 µM (≈ 90.3 µg/mL)	MBC [4]: 200 µM (≈ 90.3 µg/mL); MIC [4]: 100 µM (≈ 45.2 µg/mL); MBC [5]: 25 µM (≈ 11.3 µg/mL); MIC ([5]; overnight (18 hrs)): 25 µM (≈ 11.3 µg/mL)
	Cc1ccc(-c2sc3c(C4CC4)c(Cc4cccc5ccccc45)cc(=O)n3c2C(=O)O)cc1 [Example 31, 5-Cyclopropyl-4-[(1-naphthyl)methyl]-2-oxo-8-(p-tolyl)-7-thia-1-azabicyclo[4.3.0]nona-3,5,8-triene-9-carboxylic acid]	50 µM (≈ 23.3 µg/mL)	100 µM (≈ 46.6 µg/mL)	MBC [4]: 100 µM (≈ 46.6 µg/mL); MIC [4]: 50 µM (≈ 23.3 µg/mL); MBC [5]: 50 µM (≈ 23.3 µg/mL)
	O=C(O)c1c(-c2ccc3[nH]ccc3c2)sc2c(C3CC3)c(Cc3cccc4ccccc34)cc(=O)n12 [Example 32, 5-Cyclopropyl-8-(1H-indol-5-yl)-4-[(1-naphthyl)methyl]-2-oxo-7-thia-1-azabicyclo[4.3.0]nona-3,5,8-triene-9-carboxylic acid]	200 µM (≈ 98.1 µg/mL)	> 400 µM	MBC [5]: 50 µM (≈ 24.5 µg/mL); MBC [2]: > 400 µM
> 400 µM	O=C(O)c1c(-c2ccc3c(c2)OCCO3)sc2c(C3CC3)c(Cc3cccc4ccccc34)cc(=O)n12 [Example 33, 5-Cyclopropyl-8-(1,4-dioxa-2,3-dihydronaphth-6-yl)-4-[(1-naphthyl)methyl]-2-oxo-7-thia-1-azabicyclo[4.3.0]nona-3,5,8-triene-9-carboxylic acid]			MBC [4]: 400 µM (≈ 204 µg/mL); MBC [5]: 20 µM (≈ 10.2 µg/mL)
	O=C(O)c1c(-c2ccsc2)sc2c(C3CC3)c(Cc3cccc4ccccc34)cc(=O)n12 [Example 34, 5-Cyclopropyl-4-[(1-naphthyl)methyl]-2-oxo-8-(3-thienyl)-7-thia-1-azabicyclo[4.3.0]nona-3,5,8-triene-9-carboxylic acid]		250 µM (≈ 114 µg/mL)	MBC [4]: 400 µM (≈ 183 µg/mL); MBC [5]: 25 µM (≈ 11.4 µg/mL)
	O=C(O)c1c(-c2ccco2)sc2c(C3CC3)c(Cc3cccc4ccccc34)cc(=O)n12 [Example 35, 5-Cyclopropyl-8-(2-furyl)-4-[(1-naphthyl)methyl]-2-oxo-7-thia-1-azabicyclo[4.3.0]nona-3,5,8-triene-9-carboxylic acid]			MBC [5]: 50 µM (≈ 22.1 µg/mL)
	O=C(O)c1c(-c2ccoc2)sc2c(C3CC3)c(Cc3cccc4ccccc34)cc(=O)n12 [Example 36, 5-Cyclopropyl-8-(3-furyl)-4-[(1-naphthyl)methyl]-2-oxo-7-thia-1-azabicyclo[4.3.0]nona-3,5,8-triene-9-carboxylic acid]			MBC [5]: 25 µM (≈ 11 µg/mL)

Structure (SMILES)	MIC [2]	MIC [1, 6]	MBC ([1]; Staphylococcus aureus)	other results
CCCCOc1ccc(-c2sc3c(C4CC4)c(Cc4cccc5ccccc45)cc(=O)n3c2C(=O)O)cc1C [Example 7, 8-(4-Butoxy-3-methyl-phenyl)-5-cyclopropyl-4-[(1-naphthyl)methyl]-2-oxo-7-thia-1-azabicyclo[4.3.0]nona-3,5,8-triene-9-carboxylic acid]	95 µM (≈ 51.1 µg/mL)	25 µM (≈ 13.4 µg/mL)	32 µM (≈ 17.2 µg/mL)	MBC [2]: 19 µM (≈ 10.2 µg/mL); MBC [3]: 7 µM (≈ 3.76 µg/mL)
